These results are taken from US11571423B2, “Small molecule modulators of human sting” (Curadev Pharma Limited, priority 2017, dated 2023).

One experiment addresses hSTING(HAQ) (Homo sapiens, UniProt Q86WV6, G230A/H232R/R293Q/R71H). Description: Luciferase reporter assay in HEK293T-hSTING-Luciferase cells, HAQ polymorph. Type of experiment: cell-based. Conditions: HAQ polymorph of human STING, EC50 range class. From the text:
(§1) Stable Cell Line Generation • a) Stable STING expressing cells—Stable HEK293T STING-expressing cell lines were generated using plasmids purchased from Invivogen, CA, USA, that contain STING cDNA cloned into the pUNO-1 vector under hEF1-HTLV promoter and containing the Blasticidin selection cassette. The plasmids hSTING(R232), hSTING(H232), hSTING(HAQ) were directly procured from Invivogen while hSTING (AQ) and hSTING (Q) were derived from hSTING(HAQ) and hSTING (R232) plasmids respectively by using a PCR based site directed mutagenesis method. These vectors were individually transfected into HEK293T cells using Lipofectamine (Invitrogen) and transfected cells were selected under Blasticidin selection. These transfected cells were further subjected to clonal selection using the limiting dilution method to obtain clonally pure populations of HEK cells transfected with each of the above mentioned human STING variants. Only those clones were selected in which ligand independent activation of STING was minimal. • b) Stable Luciferase reporter gene expressing cells—Stable HEK293T Luciferase reporter gene expressing cell lines were generated using pCDNA4 plasmids under an IRF-inducible promoter. This promoter is comprised of five tandem interferon-stimulated response elements (ISRE) fused to an ISG54 minimal promoter. This vector was transfected into HEK293T cells using Lipofectamine (Invitrogen) and transfected cells were selected under Zeocin selection. These transfected cells were further subjected to clonal selection using the limiting dilution method to obtain clonally pure populations of HEK cells transfected the Luciferase reporter construct. Only those clones were selected in which ligand independent induction of luciferase was minimal.
(§2) 5×10^5 clonally selected HEK293T-hSTING-Luciferase cells were seeded in 384-well plates in growth medium and stimulated with novel compounds. After 20 hr of stimulation supernatant were removed and secretary reporter gene activity were measured using the Quanti-Luc detection system (Invivogen) on a Spectramax i3X luminometer.
(§3) In the tables below, EC50 value ranges for exemplary compounds are given.
(§4) Single nucleotide polymorphisms of human STING have been described, which can affect the functional potency of compounds that modulate the activity of the STING protein (see Yi et. al., PLoS One, October 2013, 8(10), e77846). The 5 major polymorphisms of human STING are shown in FIG. 1, with their prevalence in human populations indicated.
(§5) The tables below show the potency of selected compounds of the invention against the most common polymorphisms.
(In general: Reporter assays use an easily measured gene product as a stand-in for the process of interest.)

Another experiment deals with hSTING(H232) (Homo sapiens, UniProt Q86WV6). Description: Luciferase reporter assay in HEK293T-hSTING-Luciferase cells, H232/REF polymorph. Type of experiment: cell-based. Conditions: H232/REF polymorph of human STING, EC50 range class.
Source text: as §1, §2, §3, §4, §5

In another experiment the target is hSTING(R232) (Homo sapiens, UniProt Q86WV6, H232R). Description: Luciferase reporter assay in HEK293T-hSTING-Luciferase cells, R232 (wild type) human STING. It counts as cell-based. Conditions: 20 hr stimulation. In short, it runs like this: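 Clonal HEK293T cells stably expressing STING from a pUNO-1 plasmid plus an ISRE/ISG54-driven secreted luciferase reporter; 5×10^5 cells stimulated with compound for 20 hr. Supernatant luciferase read by luminescence, giving fold-induction over baseline and EC50.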

The next experiment concerns IRF pathway. Nature of the experiment: Reporter gene expression assay in THP1-Dual cells, IRF axis (secreted Lucia luciferase). It counts as cell-based, human. Conditions: Homo sapiens, 20 hr stimulation, EC50 range class, read-out: THP-IRF activity. How it is done:
(§6) THP1-Dual™ cells (Invivogen) were derived from the human THP-1 monocyte cell line by stable integration of two inducible reporter constructs. As a result, THP1-Dual™ cells allow the simultaneous study of the NF-κB pathway, by monitoring the activity of secreted SEAP, and the IRF pathway, by assessing the activity of a secreted luciferase (Lucia). 5×10^5 THP1-Dual™ cells were seeded in 384-well plates in growth medium and stimulated with novel compounds. After 20 hr of stimulation supernatants were removed and reporter proteins were readily measured in the cell culture supernatant using QUANTI-Blue™ (Invivogen), a SEAP detection reagent, and QUANTI-Luc™ (Invivogen), a luciferase detection reagent on a Spectramax i3X luminometer.
(§7) EC50 value ranges for exemplary compounds tested in the above assay are given.

In the next experiment the test system is NF-κB pathway. Description: Reporter gene expression assay in THP1-Dual cells, NFkB axis (secreted SEAP). Type of experiment: cell-based, human. Conditions: Homo sapiens, 20 hr stimulation, EC50 range class, read-out: THP-NFκB activity. The method, then: as §6, §7
Experiment [1] addresses cynomolgus monkey STING protein (Macaca fascicularis, UniProt A0A2R3XZA6). Nature of the experiment: Luciferase reporter assay, cynomolgus monkey STING overexpressed in HEK293T cells. Type of experiment: cell-based. Put shortly:
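HEK293T cells overexpressing cynomolgus STING with a secreted luciferase reporter were stimulated with compound for 20 hr. Supernatant reporter activity was then measured by Quanti-Luc luminescence, and EC50 values were derived.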

Where [2] appears, read: read-out: R232 human activity (EC50 range).
Where [3] appears, read: cynomolgus monkey STING overexpressed in HEK293T cells, read-out: Cynomolgus monkey STING activity (EC50 range).

Molecules are shown by their SMILES. Counter-ions that a name gives are not always drawn. Like-named read-outs stand apart in the source and are kept apart here. Where only a bound is given, the exact number is not on record here.

Sequence of hSTING(R232) (Q86WV6 whole entry H232R): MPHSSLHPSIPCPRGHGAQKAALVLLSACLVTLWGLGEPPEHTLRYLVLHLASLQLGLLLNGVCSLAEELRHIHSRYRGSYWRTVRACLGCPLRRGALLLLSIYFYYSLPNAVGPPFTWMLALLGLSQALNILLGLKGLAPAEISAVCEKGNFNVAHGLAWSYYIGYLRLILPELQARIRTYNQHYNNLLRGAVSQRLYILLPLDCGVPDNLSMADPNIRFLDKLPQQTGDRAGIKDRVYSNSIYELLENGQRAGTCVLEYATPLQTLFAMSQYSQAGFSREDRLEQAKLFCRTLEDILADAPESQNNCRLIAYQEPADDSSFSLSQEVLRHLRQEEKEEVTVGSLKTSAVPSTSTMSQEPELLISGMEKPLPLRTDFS
Sequence of hSTING(H232) (Q86WV6 whole entry): as the sequence (Q86WV6 whole entry H232R) above, with R232H counted along it
Sequence of hSTING(HAQ) (Q86WV6 whole entry R71H/G230A/H232R/R293Q): as the sequence (Q86WV6 whole entry H232R) above, with R71H, G230A, R293Q counted along it
Sequence of cynomolgus monkey STING protein (A0A2R3XZA6 entry or part of it): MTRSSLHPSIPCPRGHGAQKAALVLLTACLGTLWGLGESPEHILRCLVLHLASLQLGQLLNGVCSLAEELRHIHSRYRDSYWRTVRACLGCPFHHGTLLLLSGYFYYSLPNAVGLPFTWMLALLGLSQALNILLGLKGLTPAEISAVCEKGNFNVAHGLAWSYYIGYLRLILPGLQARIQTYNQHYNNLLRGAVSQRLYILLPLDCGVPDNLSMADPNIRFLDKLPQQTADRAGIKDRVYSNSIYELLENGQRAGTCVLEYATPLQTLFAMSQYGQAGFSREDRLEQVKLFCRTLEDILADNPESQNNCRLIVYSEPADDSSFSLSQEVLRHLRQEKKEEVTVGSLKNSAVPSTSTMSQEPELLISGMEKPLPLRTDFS

Take `C[C@H]1c2ccc(C(=O)NCc3c(F)cc(F)cc3F)cc2N(Cc2cc(CO)ccc2F)C(=O)N1C` (stereo in doubt) [Example 268, 1-(2-fluoro-5-(hydroxymethyl)benzyl)-3,4-dimethyl-2-oxo-N-(2,4,6-trifluorobenzyl)-1,2,3,4-tetrahydroquinazoline-7-carboxamide]: the EC50 on hSTING(HAQ) is 1 to 10 µM; on hSTING(H232), 1 to 10 µM; at hSTING(R232) (setting [2]), less than 1 µM; with IRF pathway it was 1 to 10 µM; in the experiment with NF-κB pathway, 1 to 10 µM.
On to `Cc1ncc(CN2C(=O)N(C)Cc3ccc(C(=O)NCc4c(F)cc(F)cc4F)cc32)s1` [Example 20, 3-methyl-1-((2-methylthiazol-5-yl)methyl)-2-oxo-N-(2,4,6-trifluorobenzyl)-1,2,3,4-tetrahydroquinazoline-7-carboxamide], for which the EC50 on hSTING(HAQ), on hSTING(H232), at hSTING(R232) (setting [2]), in the experiment on IRF pathway and in the experiment with NF-κB pathway was 1 to 10 µM throughout.
`Cc1cccc(-c2nc(CN3C(=O)N(C)Cc4ccc(C(=O)NCc5c(F)cc(F)cc5F)cc43)c(C)o2)c1` [Example 38, 3-methyl-1-((5-methyl-2-(m-tolyl)oxazol-4-yl)methyl)-2-oxo-N-(2,4,6-trifluorobenzyl)-1,2,3,4-tetrahydroquinazoline-7-carboxamide]: the EC50 on hSTING(HAQ) is 1 to 10 µM; at hSTING(H232), 1 to 10 µM; at hSTING(R232) (setting [2]), less than 1 µM; in the experiment with IRF pathway it was more than 10 µM; in the experiment with NF-κB pathway, 1 to 10 µM.
Consider `CC1c2ccc(C(=O)NCc3c(F)cc(F)cc3F)cc2N(Cc2c(F)cccc2Br)C(=O)N1C` (stereo not shown) [Example 193, 1-(2-bromo-6-fluorobenzyl)-3,4-dimethyl-2-oxo-N-(2,4,6-trifluorobenzyl)-1,2,3,4-tetrahydroquinazoline-7-carboxamide], for which the EC50 on hSTING(HAQ), at hSTING(H232), in the experiment with IRF pathway and in the experiment with NF-κB pathway was less than 1 µM each time.
`COc1cc(F)c(F)c(CN2C(=O)N(C)[C@@H](C)c3ccc(C(=O)NCc4c(F)cc(F)cc4F)cc32)c1` [Example 270, (S)-1-(2,3-difluoro-5-methoxybenzyl)-3,4-dimethyl-2-oxo-N-(2,4,6-trifluorobenzyl)-1,2,3,4-tetrahydroquinazoline-7-carboxamide]: the EC50 (in experiment [1] (setting [3]); at hSTING(R232) (setting [2])) was less than 1 µM in each case.
Turning to `C[C@H]1c2ccc(C(=O)NCc3c(F)cc(F)cc3F)cc2N(Cc2cc(OCCCO)ccc2F)C(=O)N1C` [Example 271, (S)-1-(2-fluoro-5-(3-hydroxypropoxy)benzyl)-3,4-dimethyl-2-oxo-N-(2,4,6-trifluorobenzyl)-1,2,3,4-tetrahydroquinazoline-7-carboxamide], the EC50 in experiment [1] (setting [3]) was 1 to 10 µM; at hSTING(R232) (setting [2]), less than 1 µM.
Take `C[C@H]1c2ccc(C(=O)NCc3c(F)cc(F)cc3F)cc2N(Cc2cc(N)ccc2F)C(=O)N1C` [Example 273, (S)-1-(5-amino-2-fluorobenzyl)-3,4-dimethyl-2-oxo-N-(2,4,6-trifluorobenzyl)-1,2,3,4-tetrahydroquinazoline-7-carboxamide]: the EC50 in experiment [1] (setting [3]) was 1 to 10 µM; on hSTING(R232) (setting [2]), less than 1 µM.
For the compound `C[C@H]1c2ccc(C(=O)NCc3c(F)cc(F)cc3F)cc2N(Cc2c(F)cc(F)cc2OCCCO)C(=O)N1C` [Example 275, (S)-1-(2,4-difluoro-6-(3-hydroxypropoxy)benzyl)-3,4-dimethyl-2-oxo-N-(2,4,6-trifluorobenzyl)-1,2,3,4-tetrahydroquinazoline-7-carboxamide], the EC50 is more than 10 µM in experiment [1] (setting [3]) and less than 1 µM at hSTING(R232) (setting [2]).
With `C[C@H]1c2ccc(C(=O)NCc3c(F)cc(F)cc3F)cc2N(Cc2cc(OCCO)cc(F)c2F)C(=O)N1C` [Example 282, (S)-1-(2,3-difluoro-5-(2-hydroxyethoxy)benzyl)-3,4-dimethyl-2-oxo-N-(2,4,6-trifluorobenzyl)-1,2,3,4-tetrahydroquinazoline-7-carboxamide], the results for the EC50 (in experiment [1] (setting [3]); at hSTING(R232) (setting [2])) were 1 to 10 µM and less than 1 µM, respectively.
Consider `C[C@H]1c2ccc(C(=O)NCc3c(F)cc(F)cc3F)cc2N(Cc2c(F)cc(N)cc2F)C(=O)N1C` [Example 286, (S)-1-(4-amino-2,6-difluorobenzyl)-3,4-dimethyl-2-oxo-N-(2,4,6-trifluorobenzyl)-1,2,3,4-tetrahydroquinazoline-7-carboxamide], for which the EC50 (in experiment [1] (setting [3]); on hSTING(R232) (setting [2])) was less than 1 µM in each case.
In the case of `CC(O)c1ccc(F)c(CN2C(=O)N(C)[C@@H](C)c3ccc(C(=O)NCc4c(F)cc(F)cc4F)cc32)c1F` (stereo partly drawn) [Example 289, (4S)-1-(2,6-difluoro-3-(1-hydroxyethyl)benzyl)-3,4-dimethyl-2-oxo-N-(2,4,6-trifluorobenzyl)-1,2,3,4-tetrahydroquinazoline-7-carboxamide], the EC50 is 1 to 10 µM in experiment [1] (setting [3]) and less than 1 µM at hSTING(R232) (setting [2]).
On to `C[C@H]1c2ccc(C(=O)NCc3c(F)cc(F)cc3F)cc2N(Cc2c(F)cc(OCCN3CCOCC3)cc2F)C(=O)N1C` [Example 291, (S)-1-(2,6-difluoro-4-(2-morpholinoethoxy)benzyl)-3,4-dimethyl-2-oxo-N-(2,4,6-trifluorobenzyl)-1,2,3,4-tetrahydroquinazoline-7-carboxamide], for which the EC50 (in experiment [1] (setting [3]); on hSTING(R232) (setting [2])) was less than 1 µM each time.
As to `C[C@H]1c2ccc(C(=O)NCc3c(F)cc(F)cc3F)cc2N(Cc2c(F)cc(OCCCC(=O)O)cc2F)C(=O)N1C` [Example 294, (S)-4-(4-((3,4-dimethyl-2-oxo-7-((2,4,6-trifluorobenzyl)carbamoyl)-3,4-dihydroquinazolin-1(2H)-yl)methyl)-3,5-difluorophenoxy)butanoic acid], the EC50 (in experiment [1] (setting [3]); at hSTING(R232) (setting [2])) was less than 1 µM in each case.
Take `C[C@H]1c2ccc(C(=O)NCc3c(F)cc(F)cc3F)cc2N(Cc2c(F)cncc2F)C(=O)N1C` [Example 295, (S)-1-((3,5-difluoropyridin-4-yl)methyl)-3,4-dimethyl-2-oxo-N-(2,4,6-trifluroobenzyl)-1,2,3,4-tetrahydroquinazoline-7-carboxamide]: the EC50 (in experiment [1] (setting [3]); on hSTING(R232) (setting [2])) was less than 1 µM each time.
In the case of `C[C@H]1c2ccc(C(=O)NCc3c(F)cc(F)cc3F)cc2N(Cc2c(F)cc(OCCN)cc2Cl)C(=O)N1C` [Example 299, (S)-1-(4-(2-aminoethoxy)-2-chloro-6-fluorobenzyl)-3,4-dimethyl-2-oxo-N-(2,4,6-trifluorobenzyl)-1,2,3,4-tetrahydroquinazoline-7-carboxamide hydrochloride], the EC50 in experiment [1] (setting [3]) was more than 10 µM; at hSTING(R232) (setting [2]), less than 1 µM.
Consider `CNCCN(C)C(=O)Oc1ccc(F)c(CN2C(=O)N(C)[C@@H](C)c3ccc(C(=O)NCc4c(F)cc(F)cc4F)cc32)c1Cl` [Example 300, (S)-2-chloro-3-((3,4-dimethyl-2-oxo-7-((2,4,6-trifluorobenzyl)carbamoyl)-3,4-dihydroquinazolin-1(2H)-yl)methyl)-4-fluorophenyl-methyl(2-(methylamino)ethyl)carbamate hydrochloride], for which the EC50 (in experiment [1]; at hSTING(R232) (R232 human activity (EC50 range))) was less than 1 µM each time.
